How the values were obtained:
PTH1R T178A mutant = tested on: T1, PTH1R T178A mutant; assay: cAMP accumulation assay (GloSensor), PTH1R T178A; type: cell-based, human; settings: for ΔpEC50±SEM: relative to WT, n = 3 in triplicate; for ΔpEC50±SEM / Span±SEM: mean ± SEM; for Span±SEM: window between maximal response (Emax) and vehicle, n = 3
T1 construct: a flag-tag was fused to the N terminal of full-length PTH1R (WT or mutant); expressed in transfected cells; host or cells: HEK293T
Procedure: (§1) After 24 h, transfected cells were plated onto a 384-well plate, which was treated with cell adherent reagent (Applygen) in advance. After another 12 h, cells were treated with Hank’s balanced salt solution for starvation and then incubated in CO2-independent media containing 4% GloSensor cAMP Reagent (Promega) at a volume of 5 μl per well and incubated for 20 min at RT before measurements for baseline luminescence (Spark Multimode microplate reader, TECAN). Next, test ligands were added at different concentrations from 10^−6 to 10^−13 M before second measurement. Finally, data were normalized to 100% of the maximal PTH (1-34) response for WT PTH1R using a sigmoidal dose-response in GraphPad Prism.
(§2) Statistical analyses were performed on at least three individual datasets and analysed using GraphPad Prism software. […] Data are mean± s.e.m. from at least three independent experiments, performed in triplicates. ns, not significant, ^nsP > 0.01; ^*P < 0.01; ^**P < 0.001; ^***P < 0.0001 (one-way analysis of variance (ANOVA) followed by Dunnett’s test, compared with the response of the WT). For dose-response experiments, data were normalized and analyzed using nonlinear curve fitting for the log (agonist) versus response (three parameters) curves.

PTH1R F424A mutant = assay: cAMP accumulation assay (GloSensor), PTH1R F424A; type: cell-based, human; settings: for ΔpEC50±SEM: relative to WT, n = 3 in triplicate; for ΔpEC50±SEM / Span±SEM: mean ± SEM; for Span±SEM: window between maximal response (Emax) and vehicle, n = 3
Procedure: as §1, §2

PTH1R (WT) = target: T2, PTH1R (WT) (Homo sapiens, UniProt Q03431); assay: Wash out assay, duration of cAMP signaling; type: cell-based; settings: ligand 10^-6 M, 10 min ligand-on phase, 70 min wash-out phase, HEK293T, GloSensor
T2 construct: a flag-tag was fused to the N terminal of full-length PTH1R (WT or mutant); expressed in transfected cells; host or cells: HEK293T
T2 sequence (Q03431 27-593): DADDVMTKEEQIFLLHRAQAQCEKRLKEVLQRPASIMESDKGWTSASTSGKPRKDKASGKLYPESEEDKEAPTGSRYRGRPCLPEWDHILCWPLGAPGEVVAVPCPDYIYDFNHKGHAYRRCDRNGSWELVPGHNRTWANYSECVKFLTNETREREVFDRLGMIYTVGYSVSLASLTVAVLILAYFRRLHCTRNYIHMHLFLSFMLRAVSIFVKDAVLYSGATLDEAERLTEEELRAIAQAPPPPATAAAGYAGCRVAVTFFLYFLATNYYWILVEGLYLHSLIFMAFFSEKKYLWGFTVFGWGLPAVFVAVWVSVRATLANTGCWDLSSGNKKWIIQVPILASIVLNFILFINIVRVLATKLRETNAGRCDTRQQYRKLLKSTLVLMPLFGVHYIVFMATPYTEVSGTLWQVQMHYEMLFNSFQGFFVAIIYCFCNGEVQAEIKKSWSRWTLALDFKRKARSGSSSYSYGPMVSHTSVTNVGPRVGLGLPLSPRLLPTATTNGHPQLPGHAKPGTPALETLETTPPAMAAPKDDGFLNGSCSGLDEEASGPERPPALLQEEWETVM
Procedure: Human embryonic kidney 293 T (HEK293T) cells were transfected with a plasmid mixture consisting of pcDNA3.1-flag-PTH1R (WT) and the cAMP biosensor GloSensor-22F (Promega) at a ratio of 2:1. After 24 h, transfected cells were plated onto a 96-well plate, which was treated with cell adherent reagent (Applygen) in advance. After another 12 h, cells were treated with Hank’s balanced salt solution for starvation and then incubated in CO2-independent media containing 4% GloSensor cAMP Reagent (Promega) at a volume of 40 μl per well and incubated for 20 min at RT before measurements for baseline luminescence (Spark Multimode microplate reader, TECAN). Next, test ligands (10 μl) were added at 10^−6 M that approximated the respective Emax (efficacy) value obtained for that “ligand- on” phase were similar for the different ligands. Then the development of cAMP-dependent luminescence was measured for 10 min (“ligand-on” phase); the plates were then removed from the plate reader, the cells were rinsed twice to remove unbound ligand, treated with fresh media containing luciferin, and luminescence was again recorded for an additional 70 min (“wash-out” phase)[18]. Finally, data were analyzed using GraphPad Prism.

Substance	span (from the WT) (PTH1R T178A mutant; PTH1R T1781.30A, replicate 1)	ΔpEC50 (from the WT) (PTH1R T178A mutant; PTH1R T1781.30A, replicate 1)	span (from the WT) (PTH1R T178A mutant; PTH1R T1781.30A, replicate 2)	ΔpEC50 (from the WT) (PTH1R T178A mutant; PTH1R T1781.30A, replicate 2)	span (from the WT) (PTH1R T178A mutant; PTH1R T1781.30A, replicate 3)	ΔpEC50 (from the WT) (PTH1R T178A mutant; PTH1R T1781.30A, replicate 3)	ΔpEC50±SEM (PTH1R T178A mutant)	ΔpEC50 (from the WT) (PTH1R T178A mutant; replicate 1)	ΔpEC50 (from the WT) (PTH1R T178A mutant; replicate 2)	ΔpEC50 (from the WT) (PTH1R T178A mutant; replicate 3)	Span±SEM (PTH1R T178A mutant)	span (from the WT) (PTH1R F424A mutant; PTH1R F4246.56A, replicate 1)	ΔpEC50 (from the WT) (PTH1R F424A mutant; PTH1R F4246.56A, replicate 1)	span (from the WT) (PTH1R F424A mutant; PTH1R F4246.56A, replicate 2)	ΔpEC50 (from the WT) (PTH1R F424A mutant; PTH1R F4246.56A, replicate 2)	span (from the WT) (PTH1R F424A mutant; PTH1R F4246.56A, replicate 3)	ΔpEC50 (from the WT) (PTH1R F424A mutant; PTH1R F4246.56A, replicate 3)	ΔpEC50±SEM (PTH1R F424A mutant)	ΔpEC50 (from the WT) (PTH1R F424A mutant; replicate 1)	ΔpEC50 (from the WT) (PTH1R F424A mutant; replicate 2)	also measured
H-AVAEIQLMHQRAKWIQDARRRAFLHKLIAEIHTAEI-OH [LA-PTH, long-acting PTH analog, modified PTH/PTHrP hybrid]	104.1	-0.079	116.4	0	180.3	-0.07	-0.05±0.02	-0.079	0	-0.07	133.60±23.62	141.3	-1.04	117.4	-1.083	173.2	-1.36	-1.16±0.1	-1.04	-1.083	ΔpEC50 (from the WT) (PTH1R F424A mutant; replicate 3): -1.36; duration of cAMP signaling after wash-out (PTH1R (WT)): stronger activity of sustained signaling when compared with the PTH
H-SVSEIQLMHNLGKHLNSMERVEWLRKKLQDVHNF-OH [PTH, Teriparatide, human PTH 1-34, long-acting peptide agonist of PTH1R]	113.4	-0.148	160.5	-0.301	167.8	-0.188	-0.21±0.05	-0.148	-0.301	-0.188	147.23±17.05	181.9	-1.332	192.6	-1.492	166.2	-1.466	-1.43±0.05	-1.332	-1.492	ΔpEC50 (from the WT) (PTH1R F424A mutant; replicate 3): -1.466; Span±SEM (PTH1R F424A mutant): 143.97±16.16; duration of cAMP signaling after wash-out (PTH1R (WT)): potent prolonged cAMP signaling
H-AVSEHQLLHDKGKSIQDLRRRELLEKLL-{Aib}-KLHTA-NH2 [ABL, Abaloparatide, an analog of PTHrP, short-acting PTH1R agonist]	120.4	-0.829	180.3	-0.74	96.78	-0.62	-0.73±0.06	-0.829	-0.74	-0.62	132.49±24.86	148.5	-1.943	140.3	-2.006	170.8	-2.077	-2.01±0.04	-1.943	-2.006	ΔpEC50 (from the WT) (PTH1R F424A mutant; replicate 3): -2.077; Span±SEM (PTH1R F424A mutant): 153.20±9.11; duration of cAMP signaling after wash-out (PTH1R (WT)): obvious transient cAMP signaling

— article PMC9586930, “Molecular insights into the distinct signaling duration for the peptide-induced PTH1R activation” (Nature Communications, 2022)
